Here are results for one compound from EPA's ToxValDB 9.5 (doi:10.2903/j.efsa.2015.3943).

A value given as a limit tells only on which side of the number the result lay.

For data set [1], the system named is Anas platyrhynchos.
The subject of data set [2] is Oryctolagus sp. The settings on record: developmental; development.
In data set [3] the test system is Canidae. The settings on record: subchronic; duration: 90 days; oral; Dog Other.
Data set [4] has as its system Mus musculus.
Data set [5] relates to Rattus norvegicus. As to conditions: oral.
Data set [6] concerns Colinus virginianus.

As to `CCCCOC(=O)[C@@H](C)Oc1ccc(Oc2ccc(C#N)cc2F)cc1` [Cyhalofop-butyl], the LD50 in data set [1] (acute, oral, unspecified, mortality) is > 2250 mg/kg-day; in data set [5] (acute, mortality), > 5000 mg/kg-day; in data set [6] (acute, oral, mortality) it was > 2250 mg/kg-day. For the same compound, the NOEC was found to be 80 mg/kg-day in data set [1] (reproductive, reproduction) and 80 mg/kg-day in data set [6] (reproduction developmental, reproduction). In addition, the LC50 in data set [1] (short-term, oral, feed, mortality) was > 5620 mg/kg; in data set [6] (acute, oral, diet, mortality), > 5620 mg/kg. Moreover, the no observed adverse effect level (NOAEL) is 40 mg/kg-day in data set [2]; 3 mg/kg-day in data set [3]; 0.8 mg/kg-day in data set [4] (chronic, duration: 78 weeks); 3 mg/kg-day in data set [4] (subchronic, duration: 90 days, oral); 3 mg/kg-day in data set [5] (subchronic, duration: 90 days).
